Target: human kinase Mps-1 (Homo sapiens (Human), UniProt P33981)
Assay: Mps-1 kinase assay (TR-FRET)
Assay type: biochemical
Settings: N-terminally GST-tagged human full length recombinant Mps-1; 10 μM ATP; 1 μM biotinylated peptide substrate; read-out: Mps1 IC50
Procedure, shortened: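 GST-tagged full-length recombinant Mps-1 at about 1 nM final, adjusted per lot for linear range, phosphorylated a biotinylated peptide. Product bound Eu-anti-phospho(Ser/Thr) antibody over 1 h at 22° C and was read by TR-FRET to streptavidin-XLent. Compounds scored for kinase inhibition.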

Chain of human kinase Mps-1 (P33981 whole entry): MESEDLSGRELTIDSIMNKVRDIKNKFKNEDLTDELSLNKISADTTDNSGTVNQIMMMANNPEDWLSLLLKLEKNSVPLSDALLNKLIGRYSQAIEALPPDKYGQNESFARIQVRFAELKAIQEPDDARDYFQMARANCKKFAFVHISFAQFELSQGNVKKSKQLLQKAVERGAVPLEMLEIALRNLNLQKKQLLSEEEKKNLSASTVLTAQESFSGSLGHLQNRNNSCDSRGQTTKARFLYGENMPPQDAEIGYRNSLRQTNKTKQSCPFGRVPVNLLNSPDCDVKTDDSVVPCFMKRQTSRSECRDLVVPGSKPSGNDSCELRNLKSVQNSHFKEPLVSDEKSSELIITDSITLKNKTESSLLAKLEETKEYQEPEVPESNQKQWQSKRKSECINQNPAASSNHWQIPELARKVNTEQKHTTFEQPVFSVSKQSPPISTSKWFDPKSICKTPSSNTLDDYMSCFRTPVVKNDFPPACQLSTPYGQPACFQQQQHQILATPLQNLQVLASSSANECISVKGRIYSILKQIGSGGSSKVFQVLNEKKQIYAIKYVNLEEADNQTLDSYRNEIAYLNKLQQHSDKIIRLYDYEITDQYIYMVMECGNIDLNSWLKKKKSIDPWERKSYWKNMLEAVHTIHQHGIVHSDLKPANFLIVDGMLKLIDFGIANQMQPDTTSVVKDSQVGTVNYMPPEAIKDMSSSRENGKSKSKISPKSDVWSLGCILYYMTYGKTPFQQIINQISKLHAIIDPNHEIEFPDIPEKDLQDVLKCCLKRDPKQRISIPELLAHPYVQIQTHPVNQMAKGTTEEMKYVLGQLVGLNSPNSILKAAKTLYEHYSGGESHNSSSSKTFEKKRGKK

| Structure (SMILES) | IC50 [nM] |
| --- | --- |
| CCNC(=O)c1ccc(-n2cnc3c(NCC4CCOCC4)cc(Oc4ccc(OC)cc4F)cc32)cc1C [Example 87, N-ethyl-4-{6-(2-fluoro-4-methoxyphenoxy)-4-[(tetrahydro-2H-pyran-4-ylmethyl)amino]-1H-benzimidazol-1-yl}-2-methylbenzamide] | 11.4 |
| CNC(=O)c1ccc(-n2cnc3c(NCCC(F)(F)F)cc(Oc4ccc(OC)cc4F)cc32)cc1C [Example 88, 4-{6-(2-fluoro-4-methoxyphenoxy)-4-[(3,3,3-trifluoropropyl)amino]-1H-benzimidazol-1-yl}-N,2-dimethylbenzamide] | 6.7 |
| CCNC(=O)c1ccc(-n2cnc3c(NCCC(F)(F)F)cc(Oc4ccc(OC)cc4F)cc32)cc1C [Example 89, N-ethyl-4-{6-(2-fluoro-4-methoxyphenoxy)-4-[(3,3,3-trifluoropropyl)amino]-1H-benzimidazol-1-yl}-2-methylbenzamide] | 10.8 |
| Cc1cc(-n2cnc3c(NCCC(F)(F)F)cc(Oc4ccc(O)cc4F)cc32)ccc1C(=O)NC1CC1 [Example 90, N-cyclopropyl-4-{6-(2-fluoro-4-hydroxyphenoxy)-4-[(3,3,3-trifluoropropyl)amino]-1H-benzimidazol-1-yl}-2-methylbenzamide] | 1.1 |
| Cc1cc(-n2cnc3c(NCCC(F)(F)F)cc(Oc4cccc(F)c4O)cc32)ccc1C(=O)NC1CC1 [Example 91, N-cyclopropyl-4-{6-(3-fluoro-2-hydroxyphenoxy)-4-[(3,3,3-trifluoropropyl)amino]-1H-benzimidazol-1-yl}-2-methylbenzamide] | 0.4 |
| CNC(=O)c1ccc(-n2cnc3c(NCCC(F)(F)F)cc(Oc4cccc(F)c4O)cc32)cc1C [Example 92, 4-{6-(3-fluoro-2-hydroxyphenoxy)-4-[(3,3,3-trifluoropropyl)amino]-1H-benzimidazol-1-yl}-N,2-dimethylbenzamide] | 3 |
| CCNC(=O)c1ccc(-n2cnc3c(NCCC(F)(F)F)cc(Oc4cccc(F)c4O)cc32)cc1C [Example 93, N-ethyl-4-{6-(3-fluoro-2-hydroxyphenoxy)-4-[(3,3,3-trifluoropropyl)amino]-1H-benzimidazol-1-yl}-2-methylbenzamide] | 4.1 |
| CNC(=O)c1ccc(-n2cnc3c(NCCC(F)(F)F)cc(Oc4cccc(O)c4)cc32)cc1C [Example 94, 4-{6-(3-hydroxyphenoxy)-4-[(3,3,3-trifluoropropyl)amino]-1H-benzimidazol-1-yl}-N,2-dimethylbenzamide] | 3.1 |
| CCNC(=O)c1ccc(-n2cnc3c(NCCC(F)(F)F)cc(Oc4cccc(O)c4)cc32)cc1C [Example 95, N-ethyl-4-{6-(3-hydroxyphenoxy)-4-[(3,3,3-trifluoropropyl)amino]-1H-benzimidazol-1-yl}-2-methylbenzamide] | 5.6 |
| Cc1cc(-n2cnc3c(NCCC(F)(F)F)cc(Oc4cccc(S(F)(F)(F)(F)F)c4)cc32)ccc1C(=O)NC1CC1 [Example 96, N-cyclopropyl-2-methyl-4-{6-[3-(pentafluoro-lambda^6-sulfanyl)phenoxy]-4-[(3,3,3-trifluoropropyl)amino]-1H-benzimidazol-1-yl}benzamide] | 4.8 |
| CNC(=O)c1ccc(-n2cnc3c(NCCC(F)(F)F)cc(Oc4ccc(O)cc4F)cc32)cc1C [Example 97, 4-{6-(2-fluoro-4-hydroxyphenoxy)-4-[(3,3,3-trifluoropropyl)amino]-1H-benzimidazol-1-yl}-N,2-dimethylbenzamide] | 4.6 |
| CCNC(=O)c1ccc(-n2cnc3c(NCCC(F)(F)F)cc(Oc4ccc(O)cc4F)cc32)cc1C [Example 98, N-ethyl-4-{6-(2-fluoro-4-hydroxyphenoxy)-4-[(3,3,3-trifluoropropyl)amino]-1H-benzimidazol-1-yl}-2-methylbenzamide] | 4.6 |
| CNC(=O)c1ccc(-n2cnc3c(NCCC(F)(F)F)cc(Oc4ccc(O)c(F)c4)cc32)cc1C [Example 99, 4-{6-(3-fluoro-4-hydroxyphenoxy)-4-[(3,3,3-trifluoropropyl)amino]-1H-benzimidazol-1-yl}-N,2-dimethylbenzamide] | 2.4 |
| CCNC(=O)c1ccc(-n2cnc3c(NCCC(F)(F)F)cc(Oc4ccc(O)c(F)c4)cc32)cc1C [Example 100, N-ethyl-4-{6-(3-fluoro-4-hydroxyphenoxy)-4-[(3,3,3-trifluoropropyl)amino]-1H-benzimidazol-1-yl}-2-methylbenzamide] | 3.4 |
| COc1ccc(C(=O)c2cc(NCCC(F)(F)F)c3ncn(-c4ccc(C(=O)NC5CC5)c(C)c4)c3c2)cc1F [Example 101, N-cyclopropyl-4-{6-(3-fluoro-4-methoxybenzoyl)-4-[(3,3,3-trifluoropropyl)amino]-1H-benzimidazol-1-yl}-2-methylbenzamide] | 6.4 |
| COc1ccc(C(O)c2cc(NCCC(F)(F)F)c3ncn(-c4ccc(C(=O)NC5CC5)c(C)c4)c3c2)cc1F (stereo not shown) [Example 102, N-cyclopropyl-4-{6-[(3-fluoro-4-methoxyphenyl)(hydroxy)methyl]-4-[(3,3,3-trifluoropropyl)amino]-1H-benzimidazol-1-yl}-2-methylbenzamide] | 1.8 |

| Structure (SMILES) | IC50 [nM] |
| --- | --- |
| C=C(c1ccc(OC)c(F)c1)c1cc(NCCC(F)(F)F)c2ncn(-c3ccc(C(=O)NC4CC4)c(C)c3)c2c1 [Example 104, N-cyclopropyl-4-{6-[1-(3-fluoro-4-methoxyphenyl)vinyl]-4-[(3,3,3-trifluoropropyl)amino]-1H-benzimidazol-1-yl}-2-methylbenzamide] | 2.1 |
| COc1ccc(Cc2cc(NCCC(F)(F)F)c3ncn(-c4ccc(C(=O)NC5CC5)c(C)c4)c3c2)cc1F [Example 106, N-cyclopropyl-4-{6-(3-fluoro-4-methoxybenzyl)-4-[(3,3,3-trifluoropropyl)amino]-1H-benzimidazol-1-yl}-2-methylbenzamide] | 0.9 |
| Cc1ccc(F)cc1Oc1cc(NCCC(F)(F)F)c2ncn(-c3ccc(C(=O)NC4CC4)c(C)c3)c2c1 [Example 107, N-cyclopropyl-4-{6-(5-fluoro-2-methylphenoxy)-4-[(3,3,3-trifluoropropyl)amino]-1H-benzimidazol-1-yl}-2-methylbenzamide] | 5.3 |
| Cc1cc(-n2cnc3c(NCCC(F)(F)F)cc(C(=O)c4ccc(O)c(F)c4)cc32)ccc1C(=O)NC1CC1 [Example 108, N-cyclopropyl-4-{6-(3-fluoro-4-hydroxybenzoyl)-4-[(3,3,3-trifluoropropyl)amino]-1H-benzimidazol-1-yl}-2-methylbenzamide] | 17 |
| Cc1cc(-n2cnc3c(NCCC(F)(F)F)cc(Oc4cccc(C(F)F)c4)cc32)ccc1C(=O)NC1CC1 [Example 109, N-cyclopropyl-4-{6-[3-(difluoromethyl)phenoxy]-4-[(3,3,3-trifluoropropyl)amino]-1H-benzimidazol-1-yl}-2-methylbenzamide] | 2.8 |
| COc1ccccc1C(=O)c1cc(NCCC(F)(F)F)c2ncn(-c3ccc(C(=O)NC4CC4)c(C)c3)c2c1 [Example 110, N-cyclopropyl-4-{6-(2-methoxybenzoyl)-4-[(3,3,3-trifluoropropyl)amino]-1H-benzimidazol-1-yl}-2-methylbenzamide] | 12 |
| Cc1cc(-n2cnc3c(NCCC(F)(F)F)cc(Oc4cccc(O)c4)cc32)ccc1C(=O)NC1CC1 [Example 111, N-cyclopropyl-4-{6-(3-hydroxyphenoxy)-4-[(3,3,3-trifluoropropyl)amino]-1H-benzimidazol-1-yl}-2-methylbenzamide] | 0.6 |
| CNC(=O)c1ccc(-n2cnc3c(NCC4CCOCC4)cc(Oc4ccc(O)c(F)c4)cc32)cc1C [Example 112, 4-{6-(3-fluoro-4-hydroxyphenoxy)-4-[(tetrahydro-2H-pyran-4-ylmethyl)amino]-1H-benzimidazol-1-yl}-N,2-dimethylbenzamid] | 3.6 |
| CCNC(=O)c1ccc(-n2cnc3c(NCC4CCOCC4)cc(Oc4ccc(O)c(F)c4)cc32)cc1C [Example 113A, N-ethyl-4-{6-(3-fluoro-4-hydroxyphenoxy)-4-[(tetrahydro-2H-pyran-4-ylmethyl)amino]-1H-benzimidazol-1-yl}-2-methylbenzamide] | 6.3 |
| CCNC(=O)c1ccc(-n2cnc3c(NCC4CCOCC4)cc(Oc4ccc(OC)c(SC)c4)cc32)cc1C [Example 113B, N-ethyl-4-{6-[4-methoxy-3-(methylsulfanyl)phenoxy]-4-[(tetrahydro-2H-pyran-4-ylmethyl)amino]-1H-benzimidazol-1-yl}-2-methylbenzamide] | 54 |
| Cc1cc(-n2cnc3c(NCC4CCOCC4)cc(Oc4ccc(O)c(F)c4)cc32)ccc1C(=O)NC1CC1 [Example 114A, N-cyclopropyl-4-{6-(3-fluoro-4-hydroxyphenoxy)-4-[(tetrahydro-2H-pyran-4-ylmethyl)amino]-1H-benzimidazol-1-yl}-2-methylbenzamide] | 0.7 |
| COc1ccc(Oc2cc(NCC3CCOCC3)c3ncn(-c4ccc(C(=O)NC5CC5)c(C)c4)c3c2)cc1SC [Example 114B, N-cyclopropyl-4-{6-[4-methoxy-3-(methylsulfanyl)phenoxy]-4-[(tetrahydro-2H-pyran-4-ylmethyl)amino]-1H-benzimidazol-1-yl}-2-methylbenzamide] | 6.7 |
| CNC(=O)c1ccc(-n2cnc3c(NCC4CCOCC4)cc(Oc4ccc(O)cc4F)cc32)cc1C [Example 115A, 4-{6-(2-fluoro-4-hydroxyphenoxy)-4-[(tetrahydro-2H-pyran-4-ylmethyl)amino]-1H-benzimidazol-1-yl}-N,2-dimethylbenzamide] | 7.3 |
| CNC(=O)c1ccc(-n2cnc3c(NCC4CCOCC4)cc(Oc4ccc(OC)cc4SC)cc32)cc1C [Example 115B, 4-{6-[4-methoxy-2-(methylsulfanyl)phenoxy]-4-[(tetrahydro-2H-pyran-4-ylmethyl)amino]-1H-benzimidazol-1-yl}-N,2-dimethylbenzamide] | 28.9 |
| Cc1cc(-n2cnc3c(NCC4CCOCC4)cc(Oc4ccc(O)cc4F)cc32)ccc1C(=O)NC1CC1 [Example 116A, N-cyclopropyl-4-{6-(2-fluoro-4-hydroxyphenoxy)-4-[(tetrahydro-2H-pyran-4-ylmethyl)amino]-1H-benzimidazol-1-yl}-2-methylbenzamide] | 1 |
